The text below walks through data of ChEMBL document CHEMBL1135322, “Glutathione-like tripeptides as inhibitors of glutathionylspermidine synthetase. Part 1: Substitution of the glycine carboxylic acid group” (Bioorg Med Chem Lett, 2002).

Series [1] is described as follows: Half-life was determined. Format: ADME. The following applies: human.
In series [2] the target is T1, Glutathionylspermidine synthase (Crithidia fasciculata, UniProt P90518).
T1 sequence (P90518 whole entry): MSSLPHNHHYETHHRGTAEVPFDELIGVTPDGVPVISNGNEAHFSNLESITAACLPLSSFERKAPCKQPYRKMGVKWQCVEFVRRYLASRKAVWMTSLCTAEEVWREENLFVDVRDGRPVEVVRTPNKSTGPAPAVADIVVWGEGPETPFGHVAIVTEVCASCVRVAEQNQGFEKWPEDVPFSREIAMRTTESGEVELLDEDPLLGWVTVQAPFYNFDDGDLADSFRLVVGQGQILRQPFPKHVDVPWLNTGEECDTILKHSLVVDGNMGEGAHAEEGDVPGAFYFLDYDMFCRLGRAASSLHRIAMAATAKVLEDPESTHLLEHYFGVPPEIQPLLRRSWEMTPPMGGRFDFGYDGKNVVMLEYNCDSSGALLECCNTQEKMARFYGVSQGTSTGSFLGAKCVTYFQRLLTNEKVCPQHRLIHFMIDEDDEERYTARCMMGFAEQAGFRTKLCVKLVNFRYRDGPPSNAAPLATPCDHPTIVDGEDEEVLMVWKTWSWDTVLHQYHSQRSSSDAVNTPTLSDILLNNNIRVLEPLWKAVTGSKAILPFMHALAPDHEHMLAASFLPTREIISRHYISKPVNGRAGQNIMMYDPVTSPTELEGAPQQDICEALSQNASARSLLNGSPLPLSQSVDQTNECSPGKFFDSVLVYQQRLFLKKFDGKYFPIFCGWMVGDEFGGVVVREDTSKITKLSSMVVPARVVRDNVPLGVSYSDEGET
The series can be described thus: Concentration required for the inhibition of enzyme Glutathionylspermidine Synthetase wild-type enzyme; NA denotes not applicable.

The target in series [3] is T2, Glutathionylspermidine synthase (Crithidia fasciculata, UniProt P90518, C79A). Put plainly: Inhibitory activity against amidase free Glutathionylspermidine Synthetase mutant (C79A); NA denotes not applicable.
T2 sequence (P90518 whole entry C79A): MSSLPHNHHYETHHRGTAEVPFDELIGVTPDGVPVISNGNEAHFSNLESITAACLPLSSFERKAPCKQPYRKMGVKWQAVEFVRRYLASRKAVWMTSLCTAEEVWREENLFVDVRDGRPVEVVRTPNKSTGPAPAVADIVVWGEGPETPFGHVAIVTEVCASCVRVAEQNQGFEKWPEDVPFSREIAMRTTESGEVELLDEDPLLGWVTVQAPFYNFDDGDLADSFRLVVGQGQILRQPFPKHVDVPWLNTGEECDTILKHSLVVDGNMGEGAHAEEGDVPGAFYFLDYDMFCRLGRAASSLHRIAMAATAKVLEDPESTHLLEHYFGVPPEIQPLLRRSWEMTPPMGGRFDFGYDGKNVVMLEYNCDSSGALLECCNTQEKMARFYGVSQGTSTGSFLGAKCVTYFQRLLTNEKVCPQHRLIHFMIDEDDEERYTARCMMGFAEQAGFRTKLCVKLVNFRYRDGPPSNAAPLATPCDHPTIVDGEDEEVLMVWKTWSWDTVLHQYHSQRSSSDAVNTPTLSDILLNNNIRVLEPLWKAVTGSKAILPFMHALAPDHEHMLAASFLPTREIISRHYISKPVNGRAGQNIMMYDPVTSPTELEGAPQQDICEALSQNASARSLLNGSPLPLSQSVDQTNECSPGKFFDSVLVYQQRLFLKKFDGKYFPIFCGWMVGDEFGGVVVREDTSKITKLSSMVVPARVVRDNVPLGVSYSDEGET
Series [4] addresses T3, Glutathionylspermidine synthase (Crithidia fasciculata) (UniProt P90518).
T3 sequence (whole entry): T1 sequence (P90518 whole entry)
The series can be described thus: Compound was tested for percent inhibition towards the enzyme Glutathionylspermidine Synthetase wild-type enzyme and compared with 0.5 mM GSH.

For series [5], the target named is T3, Glutathionylspermidine synthase (Crithidia fasciculata). Put plainly: (§1) Inhibitory activity against amidase free Glutathionylspermidine Synthetase mutant (C79A). As to conditions: concentration not given here; call rule not given here.
In series [6] the target is T1, Glutathionylspermidine synthase. The series can be described thus: Inhibition constant was evaluated against enzyme Glutathionylspermidine Synthetase wild-type enzyme; NA denotes not applicable.
The target is the same in series [7]. Put plainly: Inhibition constant was evaluated against enzyme Glutathionylspermidine Synthetase; NA denotes not applicable.
Series [8] has as its target T3, Glutathionylspermidine synthase (Crithidia fasciculata). Put plainly: Compound was tested for substrate activity towards the enzyme Glutathionylspermidine Synthetase wild-type enzyme and compared with 0.5 mM GSH.
Series [9] shares this target. Put plainly: (§2) Substrate activity against amidase free Glutathionylspermidine Synthetase mutant (C79A).
For series [10], the target named is T2, Glutathionylspermidine synthase. The description is as §1.
Series [11] shares this target. The series can be described thus: Inhibitory constant against amidase free Glutathionylspermidine Synthetase mutant (C79A); NA denotes not applicable.
The target in series [12] is T1, Glutathionylspermidine synthase. The series can be described thus: Concentration required for the inhibition of enzyme Glutathionylspermidine Synthetase wild-type enzyme.
For series [13] the target is unchanged. The series can be described thus: Inhibition constant was evaluated against enzyme Glutathionylspermidine Synthetase wild-type enzyme.
For series [14], the target named is T2, Glutathionylspermidine synthase. Put plainly: Inhibitory constant against amidase free Glutathionylspermidine Synthetase mutant (C79A).
Substrate in series [15]: CC(C)C[C@H](NC(=O)CC[C@H](N)C(=O)O)C(=O)NCc1nn[nH]n1
Put plainly: Michaelis-Menten constant at the concentration of < 0.4 mM. As to conditions: Crithidia fasciculata.

Substrate in series [16]: CC(C)C[C@H](NC(=O)CC[C@H](N)C(=O)O)C(=O)NCC(N)=O
The description is as §2. As to conditions: Crithidia fasciculata.

Substrate in series [17]: CC(C)C[C@H](NC(=O)CC[C@H](N)C(=O)O)C(=O)NCC(=O)O
The series can be described thus: Compound was tested for substrate activity (Apparent Km) towards the enzyme Glutathionylspermidine Synthetase wild-type enzyme and compared with 0.5 mM GSH. The following applies: Crithidia fasciculata.

Where “and” joins values, the source holds several entries; their conditions need not be identical. Identical values can stand only once. Where a SMILES comes first, the peptide text is derived from it.

`CC(C)C[C@H](NC(=O)CC[C@H](N)C(=O)O)C(=O)NCC(=O)O` (HELM PEPTIDE1{[gGlu].L.G}$$$$V2.0) gave a half-life in series [1] of 1 h. Also, the IC50 result in [2] and in [3] was “Not Active” throughout. In addition, the inhibition in series [4] and in series [5] was 0% throughout. Further, the inhibition constant (Ki) result in series [6] and in series [7] was “Not Active” in each case. Further, the Activity in [8] is 104%; in series [9], 125%.
With `CCCCOC(=O)CNC(=O)[C@H](CC(C)C)NC(=O)CC[C@H](N)C(=O)O`, the figures for the inhibition in [4] and in series [5] were 0% and 26%, respectively. For the same molecule, the Activity in series [8] worked out at 102%; in series [9], 3%.
`CC(C)C[C@H](NC(=O)CC[C@H](N)C(=O)O)C(=O)NCC(N)=O` (HELM PEPTIDE1{[gGlu].L.G.[am]}$$$$V2.0) yielded an IC50 in series [10] of 105 µM. The inhibition was 0% in series [4] and 89% in series [5]. In series [11], the Ki result is recorded as “Not Active”. For the same molecule, the Activity in series [8] was 93%; in [9], 22%.
In [4], `CC(C)C[C@H](NC(=O)CC[C@H](N)C(=O)O)C(=O)NCc1nn[nH]n1` gave an inhibition of 58%. The Activity in [8] worked out at 0%.
Consider `CC(C)C[C@H](NC(=O)CC[C@H](N)C(=O)O)C(=O)NCc1nnn[nH]1`, for which half-maximal inhibition in [12] (IC50) required 138 µM.
Take `CC(C)C[C@H](NC(=O)CC[C@H](N)C(=O)O)C(=O)NCB(O)O`: in [12], it took 17.2 µM to reach half-maximal inhibition (IC50). Moreover, the inhibition in series [4] was determined as 95%. Further, the Ki in [13] was 81 µM and 18 µM. For the same molecule, the Activity in [8] turned out to be 1%.
For `Cc1ccc(S(=O)(=O)NC(=O)CNC(=O)[C@H](CC(C)C)NC(=O)CC[C@H](N)C(=O)O)cc1`, the concentration for half-maximal inhibition (IC50) in series [12] came to 2 µM. The molecule further showed an inhibition in [4] of 2%. Further, the Activity in [8] amounted to 2%.
Take `CC(C)C[C@H](NC(=O)CC[C@H](N)C(=O)O)C(=O)NCP(=O)(O)O`: the IC50 in [12] amounted to 60 µM. The same molecule yielded an inhibition in [4] of 86%. In series [13], this molecule showed a Ki of 60 µM. The same molecule showed an Activity in series [8] of 0%.
Take `CC(C)C[C@H](NC(=O)CC[C@H](N)C(=O)O)C(=O)NCC(=O)NO` (HELM PEPTIDE1{[gGlu].L.G.[ON[*:1]]}$$$$V2.0): in series [10], the IC50 was found to be 3.2 µM. Moreover, the inhibition amounted to 76% in [4] and 98% in series [5]. Also, the Ki in [14] is 2.5 µM; in series [11] it was “Not Active”. For the same molecule, the Activity in [8] was 44%; in series [9] it was 1%.

B1: Glutathionylspermidine synthase (Crithidia fasciculata), P90518 (protein)
chain: T1 sequence (P90518 whole entry)
In the case of B1, the values for the Km in [15], in [16] and in series [17] were 34 µM, 245 µM and 34 µM, respectively. Further, the Vmax in [16] was found to be 15%.
